Test [1] has as its system arthritis pain in the rat. Nature of the test: arthritis pain test in the rat (Test A). The test is classed as in vivo. The settings on record: po. The method, then: (A) the arthritis pain test in the rat [based on the method of A. W. Pircio et al., Eur. J. Pharmacol., 31, 207-215 (1975)] at dosages of from 3 to 50 mg/kg p.o.; and […]
In test [2] the test system is inflamed rat-hind-paw. Nature of the test: Randall-Selitto test on the inflamed rat-hind-paw (Test B). The test is classed as in vivo. The settings on record: po. The method, then: (B) the Randall-Selitto test on the inflamed rat-hind-paw [Arch. Int. Pharmacodyn. 61, 409-419 (1957)] at dosages of from 20 to 200 mg/kg p.o..

ED50 data for 3 compounds are collected here from US4622336A, “3,3-dialkyl-and 3,3-alkylene-indoline derivatives, processes for their production and pharmaceutical compositions comprising them” (Sandoz Ltd., priority 1982, dated 1986).

One may read the ED50 as the midpoint of the dose-response relation.

Consider `CCOc1ccc2c(c1)C(C)(C)CN2` [I, 3,3-Dimethyl-5-ethoxy-indoline], for which the ED50 in test [1] turned out to be 18 mg/kg; in test [2], 133 mg/kg.

On to `CCOc1ccc2c(c1)NCC2(C)C` [II, 3,3-Dimethyl-6-ethoxy-indoline], for which the ED50 stood at 7 mg/kg in test [1] and 78 mg/kg in test [2].

In the case of `CC(=O)Nc1ccc(O)cc1` [III, Paracetamol, reference compound], it took a dose of 174 mg/kg to reach the 50% effect level in test [1] (ED50).
